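The compound was tested at five concentrations on cells cultured in 96-well plates, with a 48-hour exposure period. Definition used: TGI = concentration required for complete inhibition of growth.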
Columns and labels:
Test in all cases: NCI anticancer screen, dose series, 48 h
786-0 renal = system: 786-0 renal
COLO 205 colon = system: COLO 205 colon
HCT-15 colon = system: HCT-15 colon
HL-60(TB) leukemia = system: HL-60(TB) leukemia
MCF7 breast = system: MCF7 breast
MDA-MB-435 = system: MDA-MB-435
NCI-H23 lung = system: NCI-H23 lung
NCI-H460 lung = system: NCI-H460 lung
NCI-H522 lung = system: NCI-H522 lung
NCI/ADR-RES ovarian = system: NCI/ADR-RES ovarian
OVCAR-3 ovarian = system: OVCAR-3 ovarian
OVCAR-4 ovarian = system: OVCAR-4 ovarian
OVCAR-8 ovarian = system: OVCAR-8 ovarian
SK-MEL-5 melanoma = system: SK-MEL-5 melanoma
SNB-19 CNS = system: SNB-19 CNS
SW-620 colon = system: SW-620 colon
U251 CNS = system: U251 CNS
UACC-257 melanoma = system: UACC-257 melanoma
UACC-62 melanoma = system: UACC-62 melanoma

| SMILES | TGI (786-0 renal) [µM] | TGI (COLO 205 colon) [µM] | TGI (HCT-15 colon) [µM] | TGI (HL-60(TB) leukemia) [µM] | TGI (MCF7 breast) [µM] | TGI (MDA-MB-435) [µM] | TGI (NCI-H23 lung) [µM] | TGI (NCI-H460 lung) [µM] | TGI (NCI-H522 lung) [µM] | TGI (NCI/ADR-RES ovarian) [µM] | TGI (OVCAR-3 ovarian) [µM] | TGI (OVCAR-4 ovarian) [µM] | TGI (OVCAR-8 ovarian) [µM] | TGI (SK-MEL-5 melanoma) [µM] | TGI (SNB-19 CNS) [µM] | TGI (SW-620 colon) [µM] | TGI (U251 CNS) [µM] | TGI (UACC-257 melanoma) [µM] | TGI (UACC-62 melanoma) [µM] |
| --- | --- | --- | --- | --- | --- | --- | --- | --- | --- | --- | --- | --- | --- | --- | --- | --- | --- | --- | --- |
| O=C(CCCN1CCC2(CC1)C(=O)NC(=O)N2c1ccccc1)c1ccc(F)cc1 | > 100 | > 100 | > 100 | > 100 | > 100 | > 100 | > 100 | > 100 | > 100 | > 100 | > 100 | > 100 | > 100 | > 100 | > 100 | > 100 | > 100 | > 100 | > 100 |
| Cn1c(=O)n2n(c1=O)Cc1cccc3cccc(c13)C2 | > 100 | > 100 | > 100 | 4.18 | > 100 | > 100 | > 100 | > 100 | > 100 | > 100 | > 100 | > 100 | > 100 | > 100 | > 100 | > 100 | > 100 | > 100 | > 100 |
| N=C(/C=C/c1ccc(-c2cn3cc(/C=C/C(=N)N4CCCC4)ccc3n2)cc1)N1CCCC1 | > 100 | > 100 | > 100 | > 100 | > 100 | > 100 | > 100 | > 100 | > 100 | > 100 | > 100 | > 100 | > 100 | > 100 | > 100 | > 100 | > 100 | > 100 | > 100 |
| O=C1/C(=C\c2ccc([N+](=O)[O-])cc2)Sc2scc(-c3ccc(O)c(O)c3)[n+]21 | 22.5 | 6.07 | 14.1 | 8.93 | 15.3 | 21.9 | 44.6 | 16.5 | 5.34 | 50.1 | 9.79 | 24.7 | 29.3 | 13.4 | 74 | 15 | 20.5 | 22.6 | 23.4 |
| CC[C@@H]1CN2CCC1C[C@@H]2C(O)c1ccnc2ccc(OCCN3CCN(CCOc4ccc5nccc(C(O)[C@@H]6C[C@@H]7CCN6C[C@@H]7CC)c5c4)CC3)cc12 (stereo partly specified) | 30.2 | 33.1 | 56.2 | 47.6 | 31.8 | 28 | 43.7 | 38.4 | 61.8 | > 100 | 36 | 40.8 | 42.6 | 32 | 27.9 | 55.6 | 33.1 | 32.1 | 30.5 |
| N#Cc1ncn(-c2ccccc2)c1N | > 100 | > 100 | > 100 | > 100 | > 100 | > 100 | > 100 | > 100 | > 100 | > 100 | > 100 | > 100 | > 100 | > 100 | > 100 | > 100 | > 100 | > 100 | > 100 |
| CCOC(=O)c1c(O)[nH]c(=O)c(CC)c1C | > 100 | > 100 | > 100 | > 100 | > 100 | > 100 | > 100 | > 100 | > 100 | > 100 | > 100 | > 100 | > 100 | > 100 | > 100 | > 100 | > 100 | > 100 | > 100 |
| CC(=O)N1c2ccccc2C(C)(C)OC1C(Cl)(Cl)Cl (stereo unspecified) | > 100 | > 100 | > 100 | 36.7 | 94.5 | > 100 | > 100 | > 100 | 69.3 | > 100 | > 100 | > 100 | > 100 | 53.4 | > 100 | > 100 | > 100 | 84.3 | > 100 |
| O=C(O)C(Cc1ccc2c(c1)CCC2)(Cc1ccc2c(c1)CCC2)C(=O)O | > 100 | > 100 | > 100 | > 100 | > 100 | > 100 | > 100 | > 100 | > 100 | > 100 | > 100 | > 100 | > 100 | > 100 | > 100 | > 100 | > 100 | > 100 | > 100 |
| CN(C)CCN1C(=O)CC[C@@]2(C)C1=CC[C@@H]1[C@@H]2CC[C@@]2(C)[C@H]1CC[C@]2(C)O | > 100 | > 100 | > 100 | > 100 | > 100 | > 100 | > 100 | > 100 | > 100 | > 100 | > 100 | > 100 | > 100 | > 100 | > 100 | > 100 | > 100 | > 100 | > 100 |
| O=C(c1ccc(Cl)cc1Cl)N(Cc1cccnc1)C(=S)N(Cc1cccnc1)C(=O)c1ccc(Cl)cc1Cl | 5.34 | 4.09 | 15.4 | 15.3 | 12.3 | 66 | 44.6 | 39.2 | 9.8 | 76 | 10.1 | 7.99 | 13.5 | 11.9 | 25.1 | 80.5 | 9.88 | 23.5 | 23.8 |
| COC(=O)C1Cc2c([nH]c3ccccc23)C(c2cccc(O)c2)N1 (stereo unspecified) | > 100 | 90.3 | > 100 | 48.2 | > 100 | 36.6 | 96.8 | 62 | > 100 | 49.2 | > 100 | > 100 | > 100 | > 100 | > 100 | 60.8 | > 100 | > 100 | > 100 |
| COc1cc([C@@H]2c3cc4c(cc3[C@H](OC3OC5COC(C(C)C)OC5C(O)C3O)C3COC(=O)[C@@H]32)OCO4)cc(OC)c1O (stereo partly specified) | 22.1 | 19.9 | 25.9 | > 100 | 16 | 19.2 | 15.4 | 10.2 | 37.1 | > 100 | 24.4 | 37.6 | 25.9 | 22.6 | 30.1 | 22.5 | 10.5 | 22.3 | 24.7 |
| CC(=O)OCC1OC(Nc2ccc3nc(C)n(-c4cccc(C)c4)c(=O)c3c2)C(OC(C)=O)C(OC(C)=O)C1OC(C)=O (stereo unspecified) | > 62.5 | > 62.5 | > 62.5 | > 62.5 | > 62.5 | > 62.5 | > 62.5 | > 62.5 | > 62.5 | > 62.5 | > 62.5 | > 62.5 | > 62.5 | > 62.5 | > 62.5 | > 62.5 | > 62.5 | > 62.5 | > 62.5 |
| Cc1ccc(S(=O)(=O)N2CCCSCCSCCCSCC2)cc1 | > 100 | > 100 | > 100 | > 100 | > 100 | > 100 | > 100 | > 100 | > 100 | > 100 | > 100 | > 100 | > 100 | > 100 | > 100 | > 100 | > 100 | > 100 | > 100 |
| CN1CCN(c2nc3ccccc3nc2C(=O)c2ccc(Cl)cc2)CC1 | > 100 | > 100 | > 100 | 98 | > 100 | > 100 | > 100 | 80.2 | > 100 | > 100 | > 100 | > 100 | > 100 | 52.7 | > 100 | > 100 | > 100 | > 100 | 76.2 |
| O=C1NCC2(CCNCC2)N1c1ccccc1 | > 100 | > 100 | > 100 | > 100 | > 100 | > 100 | > 100 | > 100 | > 100 | > 100 | > 100 | > 100 | > 100 | > 100 | > 100 | > 100 | > 100 | > 100 | > 100 |
| S=C(NNC1=NCCCN1)Nc1ccccc1 | > 100 | > 100 | > 100 | > 100 | > 100 | > 100 | > 100 | > 100 | > 100 | > 100 | > 100 | > 100 | > 100 | > 100 | > 100 | > 100 | > 100 | > 100 | > 100 |
| CN(C)CCOc1ccc(I)cc1Cc1ccccc1 | 23 | 26.7 | 25.1 | 18.1 | 27.5 | 15.4 | 12.6 | 26.8 | 25 | 29.8 | 26.7 | 24.6 | 30.6 | 14.2 | 28 | 32.4 | 27.1 | 29.2 | 13.1 |
